According to patent US10517889B2, “Modulators of SMAD7 expression” (Ionis Pharmaceuticals, Inc., priority 2017, dated 2019):
Strand notation (5' to 3'): a small letter for the sugar, then the base; units joined by * are phosphorothioate-linked, units joined directly phosphodiester-linked; [ ] holds rarer units or linkages, { } end groups; capitals alone tell only the bases. k = constrained ethyl (cEt); [5mC] = 5-methylcytosine; d = 2'-deoxy (DNA)

Each substance was assayed on human SMAD7 mRNA (assay: Antisense inhibition of human SMAD7 mRNA expression in Hep3B cells by 3-10-3 cEt gapmers, 10,000 nM, electroporation (Example 2)). Conditions: Hep3B cells, 10,000 nM antisense oligonucleotide, electroporation, approximately 24 hours, RT-PCR primer probe set RTS5062, relative to untreated control cells.
Type: cell-based
Outline: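 Hep3B cells (20,000/well) were electroporated with 10,000 nM 3-10-3 cEt gapmer (16-mer, phosphorothioate, 5-methylcytosines) and harvested after about 24 h. SMAD7 mRNA quantified by RT-qPCR with primer probe set RTS5062, normalized to total RNA by RiboGreen; percent inhibition relative to untreated cells.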

Substance	% Inhibition [%]
800073 (antisense kT*kA*kA*dG*dT*dA*dG*dG*dA*dG*d[5mC]*d[5mC]*dA*kG*k[5mC]*kG) [compound 800073]	39
798821 (kA*kG*k[5mC]*d[5mC]*dT*d[5mC]*d[5mC]*d[5mC]*d[5mC]*dA*d[5mC]*dT*d[5mC]*kT*k[5mC]*kG; antisense) [compound 798821]	32

Same assay, conditions: Hep3B cells, electroporation with 10,000 nM antisense oligonucleotide, approximately 24 hours, RTS5062, percent inhibition of SMAD7 mRNA relative to untreated control cells

Substance	% Inhibition [%]
799725 (antisense kG*kG*k[5mC]*d[5mC]*dA*d[5mC]*dT*dG*d[5mC]*dA*dG*d[5mC]*d[5mC]*k[5mC]*kT*kA) [compound 799725]	0
799527 (kG*kT*k[5mC]*dA*dA*dA*dG*dG*dA*dG*dG*dT*dT*kT*kG*kG; antisense) [compound 799527]	4
799626 (kA*kG*k[5mC]*dT*dT*dG*d[5mC]*dA*d[5mC]*d[5mC]*d[5mC]*dA*dG*k[5mC]*kA*kA; antisense) [compound 799626]	41

Same assay, conditions: Hep3B cells, electroporation with 10,000 nM antisense oligonucleotide, approximately 24 hours, SMAD7 mRNA by RT-PCR (RTS5062), relative to untreated control cells

Substance	% Inhibition [%]
799850 (kG*k[5mC]*kA*dA*dT*dA*dA*dA*dT*d[5mC]*dA*dA*d[5mC]*k[5mC]*kA*kG; antisense) [compound 799850]	49
830118 (kT*k[5mC]*k[5mC]*d[5mC]*dA*d[5mC]*d[5mC]*d[5mC]*dT*dA*dA*dA*d[5mC]*kT*kG*kA; antisense) [compound 830118]	0
798734 (antisense kG*k[5mC]*k[5mC]*d[5mC]*dG*d[5mC]*dG*dG*d[5mC]*dT*dG*dG*d[5mC]*kG*kG*kG) [compound 798734]	0
830155 (antisense kT*kG*kT*dG*d[5mC]*d[5mC]*dT*d[5mC]*dA*dG*d[5mC]*dA*dG*kT*kT*kA) [compound 830155]	38
798868 (kA*k[5mC]*k[5mC]*dT*dT*dG*dT*dG*dT*dA*d[5mC]*d[5mC]*dA*kA*k[5mC]*kA; antisense) [compound 798868]	48
798915 (kT*k[5mC]*kT*dG*dT*d[5mC]*d[5mC]*d[5mC]*d[5mC]*dT*d[5mC]*d[5mC]*dG*k[5mC]*kA*k[5mC]; antisense) [compound 798915]	7
830078 (kA*k[5mC]*k[5mC]*dA*d[5mC]*dA*dT*dT*d[5mC]*dA*dG*dG*dG*kT*kG*kT; antisense) [compound 830078]	0
830210 (kG*kA*k[5mC]*d[5mC]*dG*dG*dA*dA*dG*dT*d[5mC]*dT*dT*kG*kT*kA; antisense) [compound 830210]	29
798898 (kA*kG*k[5mC]*dT*dG*d[5mC]*dT*dG*dA*dT*dG*dA*dA*k[5mC]*kT*kG; antisense) [compound 798898]	2
830034 (antisense kG*kG*k[5mC]*dT*dG*dA*dT*d[5mC]*dT*dG*dG*dA*dG*kA*kA*k[5mC]) [compound 830034]	30

Same assay, conditions: Hep3B cells, electroporation with 10,000 nM antisense oligonucleotide, approximately 24 hours, primer probe set RTS5062, relative to untreated control cells

Substance	% Inhibition [%]	% inhibition of SMAD7 mRNA expression [%]
799194 (antisense kT*kG*k[5mC]*dT*dA*dA*dA*dT*dT*dT*d[5mC]*d[5mC]*dA*kA*kT*kG) [compound 799194]	42	
799030 (kG*k[5mC]*kA*dG*dG*dA*dG*dA*dG*dA*d[5mC]*dA*d[5mC]*k[5mC]*kG*k[5mC]; antisense) [compound 799030]		52
799418 (antisense kG*kT*kA*dA*dA*dT*dG*dG*dT*d[5mC]*d[5mC]*dA*dT*kG*kT*kA) [compound 799418]		12
799230 (kG*kG*kT*dG*dA*dT*dA*dA*d[5mC]*dA*d[5mC]*d[5mC]*d[5mC]*kA*kT*kA; antisense) [compound 799230]		14
799046 (antisense kG*kG*k[5mC]*dT*dT*dT*d[5mC]*d[5mC]*d[5mC]*dA*dG*dG*d[5mC]*kT*kG*kG) [compound 799046]		0
798709 (antisense kT*kG*k[5mC]*dG*d[5mC]*dT*d[5mC]*dG*dG*d[5mC]*dT*dG*dT*k[5mC]*k[5mC]*kG) [compound 798709]		2
772717 (kA*k[5mC]*kT*d[5mC]*d[5mC]*dT*dT*dT*dA*dG*dA*dA*dA*kA*kA*k[5mC]; antisense) [compound 772717]		28
799397 (antisense kA*kA*kA*dA*d[5mC]*dA*dG*dA*dG*d[5mC]*dT*dT*dG*kG*kT*kA) [compound 799397]		27
799190 (antisense kA*kG*kA*dA*dT*dG*d[5mC]*dT*dT*d[5mC]*dT*d[5mC]*dT*kT*kG*kT) [compound 799190]		61
798660 (kT*kG*k[5mC]*d[5mC]*d[5mC]*d[5mC]*dA*d[5mC]*d[5mC]*d[5mC]*d[5mC]*dG*d[5mC]*kG*k[5mC]*kG; antisense) [compound 798660]		38
799182 (antisense kG*kT*kA*dG*dT*dT*dA*dG*dA*dA*dA*dA*dA*kT*kA*kG) [compound 799182]	20	
799010 (k[5mC]*kG*kT*dT*dG*dT*d[5mC]*dT*d[5mC]*d[5mC]*d[5mC]*d[5mC]*dA*kT*k[5mC]*kT; antisense) [compound 799010]		57
798661 (kG*kG*k[5mC]*dT*dG*d[5mC]*d[5mC]*d[5mC]*d[5mC]*dA*d[5mC]*d[5mC]*d[5mC]*k[5mC]*kG*k[5mC]; antisense) [compound 798661]		52
799464 (antisense kA*kA*kG*d[5mC]*dA*d[5mC]*dT*dT*dG*dG*dT*dA*dA*kG*k[5mC]*kA) [compound 799464]		40

Same assay, conditions: Hep3B cells, electroporation, 10,000 nM antisense oligonucleotide, approximately 24 hours, RTS5062, relative to untreated control cells

Substance	% inhibition of SMAD7 mRNA expression [%]
798806 (kT*kG*kA*dA*dA*dG*d[5mC]*d[5mC]*d[5mC]*d[5mC]*d[5mC]*d[5mC]*dA*kG*kG*kG; antisense) [compound 798806]	50
799640 (k[5mC]*kA*kA*dG*dG*dA*d[5mC]*d[5mC]*dT*dG*dT*dT*d[5mC]*kT*kG*kG; antisense) [compound 799640]	40
799819 (antisense k[5mC]*k[5mC]*k[5mC]*d[5mC]*dA*d[5mC]*dT*dG*dA*dG*d[5mC]*dA*dG*kG*kA*kG) [compound 799819]	26
799800 (kT*kT*kA*d[5mC]*dA*dA*dA*dG*dG*dG*dA*dA*dA*kG*kT*k[5mC]; antisense) [compound 799800]	28
799719 (antisense k[5mC]*k[5mC]*kT*dT*dT*d[5mC]*dT*dA*d[5mC]*dT*dA*dG*dA*kA*kA*kA) [compound 799719]	19
790719 (kG*kG*kA*d[5mC]*dA*dG*dT*d[5mC]*dT*dG*d[5mC]*dT*dG*kT*kG*kG; antisense) [compound 790719]	86

Same assay, conditions: Hep3B cells, electroporation, 10,000 nM, approximately 24 hours; 3-10-3 cEt gapmers targeting SEQ ID NO: 3 and 4

Substance	% inhibition of SMAD7 mRNA expression [%]
829943 (kG*kG*kG*dA*dG*dA*d[5mC]*dT*d[5mC]*d[5mC]*dA*dG*dT*kT*k[5mC]*kG; antisense) [compound 829943]	43

Same assay, conditions: SMAD7 mRNA, Hep3B cells, 10,000 nM antisense oligonucleotide, electroporation, approximately 24 hours, primer probe set RTS5062, relative to untreated control cells

Substance	% Inhibition [%]
829783 (antisense kG*kA*kT*d[5mC]*d[5mC]*dG*dG*d[5mC]*d[5mC]*dA*d[5mC]*d[5mC]*dT*kG*kA*kA) [compound 829783]	52

Same assay, conditions: SMAD7 mRNA, Hep3B cells, electroporation with 10,000 nM antisense oligonucleotide, approximately 24 hours, primer probe set RTS5062, relative to untreated control cells

Substance	% Inhibition [%]
829947 (kG*kG*kG*d[5mC]*dA*dG*d[5mC]*d[5mC]*dA*dG*dT*dT*dA*kA*kT*k[5mC]; antisense) [compound 829947]	31
829934 (kT*kA*kG*dG*dT*dG*dA*dT*dA*dA*d[5mC]*dA*d[5mC]*k[5mC]*k[5mC]*kA; antisense) [compound 829934]	26
